Earlier results as cited in patent publication US10052341B2, “Method for preparing an anthelmintic composition, anthelmintic composition, veterinary treatment method and anthelmintic treatment method” (OURO FINO SAUDE ANIMAL PARTICIPACOES SA, priority 2013, dated 2018).

Conditions: pH 5

In the case of `CCC[S+]([O-])c1ccc2[nH]c(NC(=O)OC)nc2c1` (centres unmarked) [albendazole sulfoxide], the Water-solubility is given as 67 µg/mL.

In the case of `CCCSc1ccc2nc(NC(=O)OC)[nH]c2c1` [albendazole], the Water-solubility is listed as 0.53 µg/mL.
